Test results published in ChEMBL document CHEMBL1129469, “Nonpeptide angiotensin II receptor antagonists: the next generation in antihypertensive therapy” (J Med Chem, 1996).
Positions count from the first letter of the chain named.

Tests used:
[1] = species: Oryctolagus cuniculus; test: Inhibitory activity against angiotensin II type 1 induced contractions in rabbit aorta; assay type: functional
[2] = target: T1, Angiotensin II receptor (AT-1) type-1 (Rattus norvegicus, UniProt P29089+P25095); test: Inhibitory activity against Angiotensin II receptor, type 1 in rat aortic membrane; assay type: cell membranes
T1 sequence (P29089 whole entry): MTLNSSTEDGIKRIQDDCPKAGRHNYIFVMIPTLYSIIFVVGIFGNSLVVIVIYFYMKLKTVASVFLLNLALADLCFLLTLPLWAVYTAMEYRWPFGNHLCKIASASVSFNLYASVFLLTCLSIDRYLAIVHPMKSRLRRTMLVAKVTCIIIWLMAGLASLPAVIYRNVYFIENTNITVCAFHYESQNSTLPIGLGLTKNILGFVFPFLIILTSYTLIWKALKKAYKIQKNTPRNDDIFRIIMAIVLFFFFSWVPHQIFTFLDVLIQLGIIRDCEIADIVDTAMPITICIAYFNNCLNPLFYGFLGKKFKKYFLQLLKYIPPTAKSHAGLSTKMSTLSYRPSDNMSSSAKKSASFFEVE
T1 sequence (P25095 whole entry): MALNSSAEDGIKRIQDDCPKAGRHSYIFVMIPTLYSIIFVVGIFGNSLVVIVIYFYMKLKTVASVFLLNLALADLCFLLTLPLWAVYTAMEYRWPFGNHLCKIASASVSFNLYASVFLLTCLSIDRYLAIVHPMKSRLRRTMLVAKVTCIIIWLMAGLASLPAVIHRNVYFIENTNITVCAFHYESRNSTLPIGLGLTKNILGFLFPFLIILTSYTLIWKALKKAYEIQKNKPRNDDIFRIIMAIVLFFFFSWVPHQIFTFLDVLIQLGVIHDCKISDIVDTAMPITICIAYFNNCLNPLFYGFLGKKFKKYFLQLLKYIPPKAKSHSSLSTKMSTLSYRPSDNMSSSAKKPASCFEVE

[3] = system: Rattus norvegicus; test: Effective dose required for inhibition of Ang II-induced pressor response in conscious rats; assay type: functional
[4] = target: T2, Type-1 angiotensin II receptor (Cavia porcellus, UniProt Q9WV26); test: In vitro antagonistic potency against Angiotensin II receptor, type 1 in guinea pig adrenal membrane; assay type: functional, cell membranes
T2 sequence (Q9WV26 whole entry): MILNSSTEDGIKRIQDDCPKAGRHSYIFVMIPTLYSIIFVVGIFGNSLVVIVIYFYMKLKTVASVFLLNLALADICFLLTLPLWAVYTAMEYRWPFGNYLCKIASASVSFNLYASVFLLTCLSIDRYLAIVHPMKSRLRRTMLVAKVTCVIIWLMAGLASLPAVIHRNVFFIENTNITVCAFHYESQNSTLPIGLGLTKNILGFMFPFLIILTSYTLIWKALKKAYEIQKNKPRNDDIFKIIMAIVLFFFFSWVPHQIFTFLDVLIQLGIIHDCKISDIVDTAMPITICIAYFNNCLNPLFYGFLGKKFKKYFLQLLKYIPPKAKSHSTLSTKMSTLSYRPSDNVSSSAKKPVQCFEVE

[5] = system: Rattus norvegicus; test: Percent inhibition was evaluated to inhibit Ang II pressor response in conscious rats at oral dose 1 mg/kg; assay type: functional
[6] = species: Rattus norvegicus; test: Effective dose required for lowering blood pressure in renal hypertensive rats (RHR); assay type: functional
[7] = system: Rhesus monkey; test: Oral effective dose required for inhibition of Ang II pressor response in conscious rhesus monkey; assay type: functional, Cercopithecidae; conditions: Macaca mulatta
[8] = system: Rattus norvegicus; test: Oral effective dose required for inhibition of Ang II pressor response in conscious rat; assay type: functional
[9] = system: Canis familiaris; test: Oral effective dose required for inhibition of Ang II pressor response in conscious dog; assay type: functional; conditions: Canis lupus familiaris
[10] = target: T1, Angiotensin II receptor (AT-1) type-1; test: Binding affinity was evaluated towards Angiotensin II receptor, type 1 in rat adrenal membrane; assay type: cell membranes
[11] = species: Oryctolagus cuniculus; test: Compound was tested for its antagonistic activity against angiotensin II-induced contractions in rabbit aorta; assay type: functional
[12] = target: T3, Type-1 angiotensin II receptor (Oryctolagus cuniculus, UniProt P34976); test: Inhibitory activity was evaluated against angiotensin II type 1 rabbit aorta; assay type: tissue-based
T3 sequence (P34976 whole entry): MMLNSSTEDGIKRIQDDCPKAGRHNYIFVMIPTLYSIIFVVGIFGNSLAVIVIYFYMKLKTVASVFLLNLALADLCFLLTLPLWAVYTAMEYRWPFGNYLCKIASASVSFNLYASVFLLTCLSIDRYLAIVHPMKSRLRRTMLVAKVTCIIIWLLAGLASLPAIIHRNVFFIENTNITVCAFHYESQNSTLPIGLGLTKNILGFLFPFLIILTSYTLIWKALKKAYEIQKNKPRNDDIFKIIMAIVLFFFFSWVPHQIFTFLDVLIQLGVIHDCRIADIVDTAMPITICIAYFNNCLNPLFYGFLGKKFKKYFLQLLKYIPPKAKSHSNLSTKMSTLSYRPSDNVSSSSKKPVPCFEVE

[13] = target: T1, Angiotensin II receptor (AT-1) type-1; test: In vitro antagonistic potency against Angiotensin II receptor, type 1 in rat adrenal cortex; assay type: functional, tissue-based
[14] = system: Rattus norvegicus; test: Intravenous effective dose against Ang II-induced pressor responses in conscious rats; assay type: functional
[15] = target: T4, Type-1 angiotensin II receptor (Homo sapiens, UniProt P30556); test: Ki value was evaluated against Angiotensin II receptor, type 1
T4 sequence (P30556 whole entry): T3 sequence (P34976 whole entry) with M2I, A49V, V254I, V270I, H272R, K311R, S349T, V353A

[16] = target: T5, Type-2 angiotensin II receptor (Homo sapiens, UniProt P50052); test: Ki value was evaluated against Angiotensin II receptor, type 2
T5 sequence (P50052 whole entry): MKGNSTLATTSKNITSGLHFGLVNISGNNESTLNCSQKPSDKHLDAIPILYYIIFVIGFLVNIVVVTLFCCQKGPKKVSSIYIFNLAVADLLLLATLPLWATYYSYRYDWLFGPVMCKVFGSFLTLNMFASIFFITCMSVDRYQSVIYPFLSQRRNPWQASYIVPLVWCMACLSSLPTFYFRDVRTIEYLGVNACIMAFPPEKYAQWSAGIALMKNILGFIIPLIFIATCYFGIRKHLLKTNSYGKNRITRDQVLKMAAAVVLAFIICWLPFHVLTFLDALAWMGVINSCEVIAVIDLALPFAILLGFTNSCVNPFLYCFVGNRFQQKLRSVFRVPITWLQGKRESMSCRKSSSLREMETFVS

[17] = system: Rattus norvegicus; test: Intravenous effective dose required for lowering blood pressure in renal hypertensive rats (RHR); assay type: functional
[18] = target: T4, Type-1 angiotensin II receptor; test: Inhibition of Angiotensin II receptor, type 1
[19] = target: T5, Type-2 angiotensin II receptor; test: Inhibition of Angiotensin II receptor, type 2
[20] = system: Rattus norvegicus; test: Percent inhibition was evaluated against Ang II pressor in rats at dose 3 mg/kg, by oral administration; assay type: functional

CCOc1nc2cccc(C(=O)O)c2n1Cc1ccc(-c2ccccc2-c2nnn[nH]2)cc1 showed an IC50 [1] of 0.3 nM.
CCCCC(=O)N(Cc1ccc(-c2ccccc2-c2nnn[nH]2)cc1)[C@H](C(=O)O)C(C)C was tested, and the IC50 [2] was 2.7 nM.
Compound CCc1cc2c(c(CC)n1)CCC(=O)N2Cc1ccc(-c2ccccc2-c2nnn[nH]2)cc1 has an ED50 [3] of 0.19 mg/kg and an IC50 [4] of 3.8 nM.
Compound CCCCc1nc2ccc(NC(=O)N(C)C(C)C)cc2c(=O)n1Cc1ccc(-c2ccccc2-c2nn[nH]n2)cc1 has an inhibition in vivo at 1 mg/kg [5] of 84%.
Work on CCCCc1nc(Cl)c(CC(=O)OC)n1Cc1ccc(NC(=O)c2ccccc2C(=O)O)cc1 yielded an ED30 [6] of 11 mg/kg.
Compound CCc1cc(OCc2ccc(-c3ccccc3-c3nnn[nH]3)cc2)c2ccccc2n1 has an IC50 [4] of 30 nM.
With CCc1nc2c(C)cc(C)nc2n1Cc1ccc(-c2ccccc2S(=O)(=O)NC(=O)c2ccccc2)cc1 the ED50 [7] was 0.1 mg/kg, the ED50 [8] was 0.067 mg/kg and the ED50 [9] was 0.035 mg/kg.
Work on CCCc1nc(C)n2[nH]c(=O)nc2c1Cc1ccc(-c2ccccc2-c2nnn[nH]2)cc1 yielded a Ki [10] of 24 nM and a Kb [11] of 0.29 nM.
CCc1nc2c(CC)cn(Cc3ccc(-c4ccccc4-c4nn[nH]n4)cc3)n2n1 gave an IC50 [12] of 1.7 nM.
Compound CCCCc1nc(Cl)c(C(=O)O)n1Cc1cccc2c1ccn2-c1ccccc1-c1nn[nH]n1 has a Kb [11] of 0.068 nM, a Ki [13] of 800 nM and an ED50 [14] of 0.22 µmol/kg.
For CCCCCN(C(=O)NC)c1ccc2nc(CCCC)n(Cc3ccc(NC(=O)c4c(Cl)ccc(Cl)c4C(=O)O)cc3)c2c1, the Ki [15] was 20 nM, the Ki [16] was 730 nM and the ED30 [17] was 2 mg/kg.
With CCCCCN(Cc1ccc(-c2ccccc2-c2nn[nH]n2)cc1)C(=O)N1CCN(C(=O)N(c2ccccc2)c2ccccc2)[C@H](C(=O)O)C1 the IC50 [18] was 15 nM, the IC50 [19] was 180 nM and the inhibition in vivo at 3 mg/kg [20] was 80%.
